In brackets after ≈: the same amount, converted by molar mass. Like-named read-outs stand apart in the source and are kept apart here.
Columns and labels:
[1] = test system: murine Swiss albino fibroblast (3T3) cell line; experiment: Cell viability, MTT assay, 3T3; format: cell-based; conditions: Mus musculus, 24 h, 24 h incubation, MTT endpoint
Procedure: (§1) Two different endpoints, 3-(4,5-dimethyl-2-thiazolyl)-2,5-diphenyltetrazolium bromide (MTT) and neutral red uptake (NRU), were used to assess differences in cell-induced cytotoxicity. […] In addition, NRU evaluates the interaction of these drugs with the plasmatic membrane. Cell responses were determined from the MTT [16] and NRU [17] assays, using the two proposed cell lines. Cytotoxicity assays were performed at concentrations equal to 80 and 250 µg/mL. The IC50 value, referring to the half-maximal inhibitory concentration, was determined as a key parameter in cytotoxicity studies (Table 1). It plays a crucial role in evaluating cell viability and assessing cellular responses to various drugs or toxins. For cases where IC50 values were below 80 µg/mL, additional studies at lower concentrations were conducted to accurately determine these values. […] The selectivity index (SI), used as a measurement of action against the tumor cell line in comparison with a normal cell line, was also included.
(§2) • In Vitro Assay Using Human Erythrocytes • - Acquisition and Extraction of the Erythrocytes Human blood samples were obtained from the Banc de Sang i Teixits de Barcelona (Spain) from the Catalan Department of Health. Blood was deposited in tubes with the anticoagulant EDTA-K3. Blood samples were centrifuged at 3000 rpm and 4 °C for 10 min (Megafuge 2.0 R. Heraeus Instruments, Hanau, Germany) to induce sedimentation. Plasma was extracted with a Pasteur pipette. Next, the residual pellet was washed with PBS at pH 7.4. This procedure was repeated three times to remove residual leukocytes and platelets and to concentrate the erythrocytes. Following the last wash, the erythrocyte suspension was diluted (1:1) in PBS at pH 7.4 to obtain a suitable erythrocyte suspension (cell density of 8 × 10^9 cell/mL). • - Hemolysis Assay The hemolysis assay determined the capability of different compounds to induce the hemolysis of the erythrocyte membrane. Stock solutions of each compound at 1 mg/mL in PBS at pH 7.4 were prepared. Different volumes (10–80 μL) were placed in polystyrene tubes, and an aliquot of 25 µL of the erythrocyte suspensions was added to each tube. The final volume was 1 mL. The tubes were incubated at room temperature under rotatory conditions. Then, the tubes were centrifuged at 10,000 rpm for 5 min. The supernatants’ absorbance at 540 nm (Shimadzu UV-160A, Shimadzu, Duisburg, Germany) was compared with that of the positive (erythrocytes hemolyzed with distilled water) and negative (erythrocyte suspension in PBS at pH 7.4) controls. The degree of hemolysis was determined using the following equation: Hemolysis (%) = 100 × (Abs − Abs0)/(Abs100 − Abs0) where Abs, Abs0, and Abs100 are the absorbance of the test samples, of the suspension treated with isotonic phosphate–buffered saline (PBS), and of the suspension of complete hemolysis treated with distilled water, respectively. • In Vitro Essay Using Cell Cultures The murine Swiss albino fibroblasts (3T3) and the squamous cell carcinoma (A431) cell lines were obtained from Celltec UB. Cells were grown in DMEM medium (4.5 g/L glucose) supplemented with 10% (v/v) FBS, 2 mM L-glutamine, 100 U/mL penicillin, and 100 µg/mL streptomycin at 37 °C with 5% CO2. Cells were routinely cultured in 75 cm^2 culture flasks and were trypsinized using trypsin–EDTA when the cells reached approximately 80% confluence. The trypan blue assay, which allows for the direct identification and enumeration of the live (unstained) and dead (blue) cells in the cell population, was used to evaluate the viability of the cells in the cell suspension obtained. • - Cell Viability Assays Cell lines of 3T3 (1 × 10^5 cells/mL) and A431 (5 × 10^4 cells/mL) were grown at defined densities in the 60 central wells of a 96-well plate. The cells were incubated for 24 h in 5% CO2 at 37 °C. […]

[2] = test system: A431 cell line (squamous cell carcinoma); experiment: Cell viability, NRU assay, A431; format: cell-based, human; conditions: for SI250, pseudo-selectivity index (NRU): 250 µg/mL, 24 h, A431 vs 3T3, NRU; for IC50: Homo sapiens, A-431, 24 h, 24 h incubation, NRU endpoint, A431
Procedure: as §1, §2

[3] = test system: A431 cell line (squamous cell carcinoma); experiment: Cell viability, MTT assay, A431; format: cell-based; conditions: for IC50: Homo sapiens; for selective cytotoxicity, A431 in comparison with 3T3 cells: lower IC50 for A431 than 3T3; for SI (MTT), selectivity index: SI = IC50 (3T3)/IC50 (A431); for SI250, pseudo-selectivity index (MTT): 250 µg/mL, 24 h, A431 vs 3T3, MTT
Procedure: as §1, §2

[4] = test system: murine Swiss albino fibroblast (3T3) cell line; experiment: Cell viability, NRU assay, 3T3; format: cell-based; conditions: Mus musculus, 24 h incubation, NRU endpoint
Procedure: as §1, §2

human erythrocytes = experiment: Hemolysis assay with human erythrocytes; format: cell-based; conditions: from 10 to 80 µg/mL
Procedure: (§3) In this context, non-hemolytic compounds are essential, as they enhance the safety and efficacy of lactam-based drugs by reducing adverse effects while maintaining their antitumor activity. In accordance with EU regulations (ISO 10993-4), the assessment of the biological compatibility of new compounds that may come into contact with the blood necessitates in vitro hemocompatibility evaluations. In this study, the extent of hemolysis induced by the different compounds was assessed by incubating them with an erythrocyte suspension. The hemolytic response of compounds 1–10 was evaluated at two concentrations (10 and 80 µg/mL), the results of which are presented in Figure 3.
as §2, with “°C. Then, the spent medium was removed, and the cells were incubated for 24 h, with their corresponding compound solutions (1 mg/mL) previously diluted in a minimum amount of DMF (dimethylformamide) and then in DMEM medium supplemented with 5% FBS (100 µL) at the required concentration range (80 or 250 µg/mL).” for “°C.”

[5] = Hemolysis assay with human erythrocytes; format: cell-based; conditions: human, washed human erythrocyte suspension, pH 7.4, read-out: degree of hemolysis
Procedure: as §3
as §2, with “°C. Then, the spent medium was removed, and the cells were incubated for 24 h, with their corresponding compound solutions (1 mg/mL) previously diluted in a minimum amount of DMF (dimethylformamide) and then in DMEM medium supplemented with 5% FBS (100 µL) at the required concentration range (80 or 250 µg/mL).” for “°C.”

[6] = test system: squamous carcinoma cells (A431) in comparison with the fibroblast (3T3) cell line; set-up: method as in PMID 38731527; conditions: cited from earlier work
Zebrafish = conditions: cited from earlier work
[7] = A-431, 24 h, 24 h incubation, MTT endpoint, A431, read-out: IC50 (MTT) A431
[8] = A-431, A431 and 3T3, MTT and NRU, summarised in text, read-out: IC50 values

| Compound | IC50 [1] | SI250, pseudo-selectivity index (NRU) [2] | IC50 [2] | IC50 [3, 7] | IC50 [4] | change of hemolytic response as concentration increased (human erythrocytes) | hemolysis at 10 µg/mL [5] | selective cytotoxicity, A431 in comparison with 3T3 cells [3] | IC50 (lowest values among five products) [6] | SI (NRU), selectivity index ([2]; SI = IC50 (3T3)/IC50 (A431), NRU) | acute toxicity (Zebrafish; Zebrafish) | acute toxicity (Zebrafish; Zebrafish embryos) | IC50 [3, 8] | SI (MTT), selectivity index [3] | SI250, pseudo-selectivity index (MTT) [3] | hemolysis at 80 µg/mL ([5]; 80 µg/mL) |
| --- | --- | --- | --- | --- | --- | --- | --- | --- | --- | --- | --- | --- | --- | --- | --- | --- |
| CC(C)(C)N1C(=O)[C@@H](Cl)[C@@H]2[C@H](Cl)CCC[C@@H]21 [Compound 3] | 183 ± 3.11 µg/mL (≈ 694 µM) | highest SI250 values | > 250 µg/mL | 250 ± 2.11 µg/mL (≈ 946 µM) | > 250 µg/mL | doubled | 0.1% |  |  |  |  |  |  |  |  |  |
| O=C1N(Cc2ccccc2)[C@H]2CCC[C@H](C2)C1(Cl)Cl [Compound 10] | > 250 µg/mL | highest SI250 values | > 250 µg/mL | 238.3 ± 1.56 µg/mL (≈ 799 µM) | > 250 µg/mL | remained stable | 0.02% | some selective cytotoxicity |  |  |  |  |  |  |  |  |
| CC1CN(C(C)(C)C)C(=O)C1(Cl)Cl (stereo not shown) [Compound 4] | > 250 µg/mL |  | > 250 µg/mL | > 250 µg/mL | > 250 µg/mL | remained stable |  |  |  |  |  |  |  |  |  |  |
| CC(C)(C)N1CC(CCl)C(Cl)(Cl)C1=O (stereo not shown) [Compound 2] | > 250 µg/mL | highest SI250 values | 232 ± 4.23 µg/mL (≈ 896 µM) | > 250 µg/mL | > 250 µg/mL | three- | 0.02% |  | 100 to 250 µg/mL | >1.08 |  |  |  |  |  |  |
| CC(=O)O[C@H]1C(=O)[C@@]2(C)[C@H]([C@H](OC(=O)c3ccccc3)[C@]3(O)C[C@H](OC(=O)[C@H](O)[C@@H](NC(=O)c4ccccc4)c4ccccc4)C(C)=C1C3(C)C)[C@]1(OC(C)=O)CO[C@@H]1C[C@@H]2O [taxol] |  |  |  |  |  |  |  |  |  |  | 1.05 µg/mL |  |  |  |  |  |
| COc1cccc2c1C(=O)c1c(O)c3c(c(O)c1C2=O)C[C@@](O)(C(=O)CO)C[C@@H]3O[C@H]1C[C@H](N)[C@H](O)[C@H](C)O1 [doxorubicin] |  |  |  |  |  |  |  |  |  |  |  | 5.6 µg/mL |  |  |  |  |
| CC(C)(C)N1C(=O)[C@@H](Cl)[C@@H]2CCCC[C@@H]21 [Compound 8] | > 250 µg/mL |  | > 250 µg/mL | 250 ± 1.78 µg/mL (≈ 1090 µM) | > 250 µg/mL | doubled | 0.1% |  |  |  |  |  | > 250 µg/mL | >1.0 |  |  |
| CC1CCN(C(C)(C)C)C(=O)C1(Cl)Cl (stereo not shown) [Compound 9] | > 250 µg/mL |  | > 250 µg/mL | 242.9 ± 1.78 µg/mL (≈ 1020 µM) | > 250 µg/mL | fivefold | 0.1% | some selective cytotoxicity |  |  |  |  |  |  | above 1.5 | ~0.7% |
| C=C(Br)CN1CC(C)C(Cl)(Cl)C1=O (stereo not shown) [Compound 5] | > 250 µg/mL |  | > 250 µg/mL | 250 ± 1.32 µg/mL (≈ 871 µM) | 250 µg/mL (≈ 871 µM) |  |  |  |  |  |  |  | > 250 µg/mL |  |  |  |
| CC1CN(C2CCC(=O)CC2)C(=O)C1(Cl)Cl (stereo not shown) [Compound 6] | > 250 µg/mL | highest SI250 values | > 250 µg/mL | > 250 µg/mL | > 250 µg/mL | remained stable |  |  |  |  |  |  |  |  |  |  |
| CC(C)(C)N1CC(C)(C)C(Cl)(Cl)C1=O [Compound 7] | > 250 µg/mL |  | > 250 µg/mL | 230 ± 2.54 µg/mL (≈ 967 µM) | > 250 µg/mL | remained stable |  | some selective cytotoxicity |  |  |  |  |  | >1.08 | above 1.5 |  |

— publication PMC12030062, “From In Vitro Cytotoxicity to In Vivo Zebrafish Assays: A Study on 3,3-Dichloro β-, γ- and δ-Lactams and Their Biological Activity Profiles” (Pharmaceuticals, 2025)
